≈ marks a conversion by molar mass, not a printed value. Positions of bridges follow the written chain, without caps; N, C: chain ends. Non-standard residues stand in square brackets, D forms with d. Residues, ends and D or L forms follow the SMILES beside them. *: point of attachment. Phenylacetyl(3-Cl) = O=C(Cc1cccc(Cl)c1)*; X4 = O=C(c1ccc(Cl)c(Cl)c1)*; Dab = NCC[C@H](N)C(=O)O; Abu = CC[C@H](N)C(=O)O; Dap = NC[C@H](N)C(=O)O; PhAc = O=C(Cc1ccccc1)*
Assays:
[1] = Nephrotoxicity in a mouse model (kidney histology score); type: in vivo; settings: mice, subcutaneous 12 mg base/kg, 6 doses in one day every 2 h; for Max Overall Kidney Histology Score: kidney ~20 h after last dose, product of percentage score and grade score; for Max Kidney Histology Score: semiquantitative score (SQS) 0 to +5
Protocol: PMB sulphate (Batch 20120204) and colistin sulphate (Batch 20120719) were supplied by Betapharma (Shanghai Co., Ltd, China). […] At ˜20 h after the last dose, mice were euthanised by inhalation of an overdose of isoflurane. […] The formalin-fixed kidneys were then sent to the Australian Phenomics Network-Histopathology and Organ Pathology (The University of Melbourne, Parkville, VIC, Australia) for histological examination. The samples were examined by a pathologist who was blind to the treatment groups. Lesions were rated as follows: mild acute tubular damage with tubular dilation, prominent nuclei and a few pale […] tubular casts (Grade 1); severe acute tubular damage with necrosis of tubular epithelial cells and numerous tubular casts (Grade 2); acute cortical necrosis/infarction of tubules and glomeruli with or without papillary necrosis (Grade 3). […] The overall kidney histology score was calculated as the product of percentage score and grade score. […] These scores were assigned as follows: […] SQS+3=moderate damage (overall score, 30 to <45); […]

[2] = system: Klebsiella pneumoniae; settings: K. pneumoniae FADDI-KP032
In short: (§1)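 MICs were determined for the lipopeptides, tested as trifluoroacetic acid salts, by broth microdilution in cation-adjusted Mueller-Hinton broth following CLSI standards (M100-S18). Polymyxin B sulphate served as the control.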

[3] = system: Acinetobacter baumannii; settings: for MIC: A. baumannii ATCC 19606; for Minimum inhibitory concentration, Ab A ATCC 17978: Acinetobacter baumannii ATCC 17978; for Minimum inhibitory concentration, Ab A ATCC 17978 / Minimum inhibitory concentration, Ab ATCC 19606 / Minimum inhibitory concentration, Ab FADDI-AB034: broth microdilution in CAMHB; for Minimum inhibitory concentration, Ab ATCC 19606: Acinetobacter baumannii ATCC 19606; for Minimum inhibitory concentration, Ab FADDI-AB034: Acinetobacter baumannii FADDI-AB034
In short: as §1

[4] = system: Pseudomonas aeruginosa; settings: for MIC: P. aeruginosa ATCC 27853; for Minimum inhibitory concentration, Pa ATCC 27853: Pseudomonas aeruginosa ATCC 27853; for Minimum inhibitory concentration, Pa ATCC 27853 / Minimum inhibitory concentration, Pa FADDI-PA022 / Minimum inhibitory concentration, Pa FADDI-PA025: broth microdilution in CAMHB; for Minimum inhibitory concentration, Pa FADDI-PA022: Pseudomonas aeruginosa FADDI-PA022; for Minimum inhibitory concentration, Pa FADDI-PA025: Pseudomonas aeruginosa FADDI-PA025
In short: as §1

[5] = system: Enterobacter cloacae; settings: broth microdilution in CAMHB; for Minimum inhibitory concentration, Ec FADDI-EC001: Enterobacter cloacae FADDI-EC001; for Minimum inhibitory concentration, Ec FADDI-EC003: Enterobacter cloacae FADDI-EC003; for Minimum inhibitory concentration, Ec FADDI-EC006: Enterobacter cloacae FADDI-EC006
In short: as §1

[6] = system: P. aeruginosa ATCC 27853; experiment: In vivo efficacy in mouse blood infection model (neutropenic Swiss mice); settings: compound, free base 4 mg/kg intravenously 2 h after inoculation, blood at 4 h
In short: (§2)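 Neutropenic Swiss mice (cyclophosphamide 150 mg/kg day −4, 100 mg/kg day −1, i.p.) infected i.v. with early log-phase bacteria; 4 mg/kg free base i.v. given 2 h post-inoculation. Blood CFU by cardiac puncture 4 h post-dose; Δlog10 CFU/mL treated versus saline controls.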

[7] = system: A. baumannii ATCC 19606; experiment: as above; settings: compound, free base 4 mg/kg intravenously 2 h after inoculation, blood at 4 h
In short: as §2

[8] = system: K. pneumoniae FADDI-KP032; experiment: as above; settings: compound, free base 4 mg/kg intravenously 2 h after inoculation, blood at 4 h
In short: as §2

SMILES | Max Overall Kidney Histology Score [1] | Max Kidney Histology Score [1] | MIC [2] [µg/mL] | MIC [3] [µg/mL] | Minimum inhibitory concentration, Ab A ATCC 17978 [3] [µg/mL] | Minimum inhibitory concentration, Ab ATCC 19606 [3] [µg/mL] | Minimum inhibitory concentration, Ab FADDI-AB034 [3] [µg/mL] | MIC [4] [µg/mL] | Minimum inhibitory concentration, Pa ATCC 27853 [4] [µg/mL] | Minimum inhibitory concentration, Pa FADDI-PA022 [4] [µg/mL] | Minimum inhibitory concentration, Pa FADDI-PA025 [4] [µg/mL] | Minimum inhibitory concentration, Ec FADDI-EC001 [5] [µg/mL] | Minimum inhibitory concentration, Ec FADDI-EC003 [5] [µg/mL] | Minimum inhibitory concentration, Ec FADDI-EC006 [5] [µg/mL] | Δ log (Treated-Control at 4 h) [6] [log10 CFU/mL] | Δ log (Treated-Control at 4 h) [7] [log10 CFU/mL] | Δ log (Treated-Control at 4 h) [8] [log10 CFU/mL]
CC[C@@H]1NC(=O)[C@@H](CC(C)C)NC(=O)[C@H](CCN)NC(=O)[C@@H](NC(=O)[C@H](CN)NC(=O)[C@@H](NC(=O)[C@H](CCN)NC(=O)Cc2cccc(Cl)c2)[C@@H](C)O)CCNC(=O)[C@H]([C@@H](C)O)NC(=O)[C@H](CCN)NC(=O)[C@H](CCN)NC1=O [Compound 79] ({Phenylacetyl(3-Cl)}-[Dab]T[Dap][Dab][Dab][dL][Abu][Dab][Dab]T; lactam 4-C) | 5.0 | +1 (SQS+1=mild damage (overall score, 1 to <15)) | <0.125 | 1 (≈ 0.877 µM) | 0.5 (≈ 0.439 µM) | 1 (≈ 0.877 µM) | 1 (≈ 0.877 µM) | 0.5 (≈ 0.439 µM) | 0.5 (≈ 0.439 µM) | 1 (≈ 0.877 µM) | 1 (≈ 0.877 µM) | 0.25 (≈ 0.219 µM) | <0.125 | 2 (≈ 1.75 µM) | −2.28 | – | –
CC[C@@H]1NC(=O)[C@@H](CC(C)C)NC(=O)[C@H](CCN)NC(=O)[C@@H](NC(=O)[C@H](CN)NC(=O)[C@@H](NC(=O)[C@H](CCN)NC(=O)Cc2ccccc2)[C@@H](C)O)CCNC(=O)[C@H]([C@@H](C)O)NC(=O)[C@H](CCN)NC(=O)[C@H](CCN)NC1=O [Compound 78] (PhAc-[Dab]T[Dap][Dab][Dab][dL][Abu][Dab][Dab]T; lactam 4-C) | 0.0 | 0 (SQS 0=no significant change (overall score, <1)) | – | – | 2 (≈ 1.81 µM) | 4 (≈ 3.62 µM) | 2 (≈ 1.81 µM) | – | 1 (≈ 0.905 µM) | 0.5 (≈ 0.452 µM) | 4 (≈ 3.62 µM) | 0.25 (≈ 0.226 µM) | 0.25 (≈ 0.226 µM) | 0.5 (≈ 0.452 µM) | – | – | –
CC[C@@H]1NC(=O)[C@@H](CC(C)C)NC(=O)[C@H](CCN)NC(=O)[C@@H](NC(=O)[C@H](CN)NC(=O)[C@@H](NC(=O)[C@H](CCN)NC(=O)c2ccc(Cl)c(Cl)c2)[C@@H](C)O)CCNC(=O)[C@H]([C@@H](C)O)NC(=O)[C@H](CCN)NC(=O)[C@H](CCN)NC1=O [Compound 71] (X4-[Dab]T[Dap][Dab][Dab][dL][Abu][Dab][Dab]T; lactam 4-C) | 0.0 | 0 (SQS 0=no significant change (overall score, <1)) | 0.5 (≈ 0.431 µM) | 0.5 (≈ 0.431 µM) | 0.25 (≈ 0.215 µM) | 0.5 (≈ 0.431 µM) | 0.25 (≈ 0.215 µM) | 0.5 (≈ 0.431 µM) | 0.5 (≈ 0.431 µM) | 4 (≈ 3.45 µM) | 1 (≈ 0.862 µM) | 1 (≈ 0.862 µM) | 0.25 (≈ 0.215 µM) | 1 (≈ 0.862 µM) | −4.04 | −1.82 | −2.98

From patent USRE48335E1, “Polymyxin derivatives as antimicrobial compounds” (priority 2014, dated 2020)
